Assays:
TrkB = molecular target: T1, TrkB (Homo sapiens, UniProt Q16620); test: TrkB kinase inhibition, HTRF assay; format: biochemical; details: LCK peptide substrate, assay ATP concentration targeted 5 μM
T1 construct: purchased Invitrogen PV3616
Procedure: (§1) TrkA, TrkB, and TrkC enzymes were obtained from Invitrogen (as catalog numbers PV3144, PV3616, and PV3617, respectively). The ability of a compound to inhibit the enzymatic activity of the TrkA, TrkB, and TrkC enzymes was determined in separate assays. Enzyme activity was measured in an HTRF® (homogeneous time resolved fluorescence) assay, which detects enzymatic phosphorylation of a biotinylated synthetic peptide substrate (an LCK peptide analog, biotin-ahx-GAEEEIYAAFFA, from Genemed Synthesis). Phosphorylation is assessed by HTRF® in the presence of an anti-phosphotyrosine antibody conjugated to Eu^3+ cryptate (Cisbio) as donor fluorophore, and streptavidin conjugated to allophycocyanin (ProZyme) as acceptor fluorophore. The HTRF® signal was detected at two different wavelengths (620 nm and 665 nm) which were used to calculate the fluorescence ratio.
(§2) Each enzyme was titrated to a concentration optimized to ensure accurate measurement of the initial reaction rate. To allow the Trk enzymes to undergo activation and auto-phosphorylation, a 20 minute pre-incubation with ATP was carried out (at twice the final targeted enzyme and ATP concentration) prior to addition of test compound and the peptide substrate.
(§3) TrkA in vitro assays were performed by pre-incubating TrkA (2-10 nM) with ATP (200 μM) for 20 minutes at ambient temperature in 50 mM HEPES pH 7.4, 10 mM MgCl2, 2 mM MnCl2, 100 μM Na3VO4, 1 mM dithiothreitol, 0.01% BSA (bovine serum albumin). Then, to the activated Trk enzyme mixture was added the test compound in 2% dimethyl sulfoxide. After 10 minutes, the peptide substrate (125 nM) was added. After 1 hour, enzyme reactions were terminated by addition of equal reaction volumes of detection/stop reagent (containing 0.2 μg/mL anti-phosphotyrosine monoclonal antibody labeled with europium from Cisbio (catalog# PT66-K), and 4 μg/mL PhycoLink® Streptavidin-Allophycocyanin conjugate from ProZyme (catalog# PJ25S) in 60 mM EDTA in 40 mM HEPES pH 7.4, 480 mM KF, 0.01% Tween® 20 and 0.1% BSA bovine serum albumin) Reaction plates were stored at 4° C. overnight before reading the fluorescence ratio signal on a PerkinElmer EnVision™ fluorescence detector. Individual reaction wells were stopped at time points to obtain reaction rates. The test inhibitor compounds were assayed in duplicate, at half-log serial dilutions over a range of concentrations (e.g. starting at 50 μM or 5 μM as the high compound concentration). The percent Trk enzyme inhibition was calculated from the initial rates of the inhibited reactions relative to the uninhibited control. IC50 values were calculated by fitting the inhibition percent to the concentration of inhibitor [I] in the assay in equation 1 below, to solve for the IC50.
(§4) Inhibition %=100[I]/([I]+[IC50]) equation 1
(§5) The TrkB and TrkC in vitro assays were performed as described above, except that for these enzymes the assay ATP concentration targeted was 5 μM.

TrkC = molecular target: T2, TrkC (Homo sapiens, UniProt Q16288); test: TrkC kinase inhibition, HTRF assay; format: biochemical; details: LCK peptide substrate, assay ATP concentration targeted 5 μM
T2 construct: purchased Invitrogen PV3617
T2 sequence (Q16288 32-839): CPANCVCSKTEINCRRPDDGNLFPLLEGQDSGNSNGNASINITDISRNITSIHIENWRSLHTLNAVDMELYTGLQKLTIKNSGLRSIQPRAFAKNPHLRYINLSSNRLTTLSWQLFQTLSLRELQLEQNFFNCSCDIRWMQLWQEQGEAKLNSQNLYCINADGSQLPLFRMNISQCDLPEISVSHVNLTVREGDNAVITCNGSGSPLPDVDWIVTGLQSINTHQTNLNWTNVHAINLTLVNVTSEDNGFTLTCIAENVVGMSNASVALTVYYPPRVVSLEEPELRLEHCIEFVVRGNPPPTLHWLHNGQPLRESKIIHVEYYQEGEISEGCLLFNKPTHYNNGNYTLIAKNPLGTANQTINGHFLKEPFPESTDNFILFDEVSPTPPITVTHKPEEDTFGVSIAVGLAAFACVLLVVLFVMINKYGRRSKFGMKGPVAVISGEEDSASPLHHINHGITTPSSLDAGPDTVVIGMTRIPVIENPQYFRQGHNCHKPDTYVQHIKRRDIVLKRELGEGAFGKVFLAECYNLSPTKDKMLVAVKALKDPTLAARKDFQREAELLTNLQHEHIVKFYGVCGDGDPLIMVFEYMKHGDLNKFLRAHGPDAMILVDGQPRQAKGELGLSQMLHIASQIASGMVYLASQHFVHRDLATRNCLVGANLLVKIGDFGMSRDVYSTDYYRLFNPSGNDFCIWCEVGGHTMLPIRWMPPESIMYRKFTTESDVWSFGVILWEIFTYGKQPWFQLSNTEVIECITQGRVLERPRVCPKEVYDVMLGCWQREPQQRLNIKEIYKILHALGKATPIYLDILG
Procedure: as §1, §2, §3, §4, §5

[1] = tested on: rat model of mono-iodoacetic acid induced osteoarthritis pain; test: Osteoarthritis pain model, hind limb grip force in MIA-treated rats; format: in vivo; details: mean percent effect, ***p<0.001 vs vehicle-treated animals
Procedure: Members of the TrkA inhibitors described above were tested and found effective in reducing osteoarthritis pain. The compounds tested were assessed in an in vivo model well known to those skilled in the art, the rat model of mono-iodoacetic acid induced osteoarthritis pain. A general review of various models of pain can be found in Joshi and Honore, Expert Opinion in Drug Discovery (2004) 1, pp. 323-334, and in the book ‘Drug Discovery and Evaluation, 2nd edition (H. Gerhard Vogel, editor; Springer-Verlag, New York, 2002; pp. 702-706).
Pain behavior was assessed by measurement of hind limb grip force (GF) in adult osteoarthritic rats. Male Sprague Dawley rats, generally weighing 125-150 g, were injected in the unilateral knee join with a single intra-articular injection of sodium monoiodoacetate (MIA). Rats were tested at 21-28 days following MIA injection. A behavioral measure of activity-induced pain was carried out. Measurements of the peak hind limb grip force were conducted by recording the maximum compressive force (CFmax), in grams of force, exerted on a hind limb strain gauge setup, in a commercially available grip force measurement system (Columbus Instruments, Columbus, Ohio).
During testing, each rat was gently restrained by grasping it around its rib cage and then allowed to grasp the wire mesh frame attached to the strain gauge. The experimenter then moved the animal in a rostral-to-caudal direction until the grip was broken. Each rat was sequentially tested twice at an approximately 2-3 minute interval to obtain a raw mean grip force (CFmax). This raw mean grip force data was in turn converted to a maximum hindlimb cumulative compressive force (CFmax), as the grams of force/kg of body weight, for each animal.
For evaluating the compound effects, the hind limb grip force testing in the MIA-treated rats was conducted generally 30-60 minutes after dosing with the test compound. A group of age-matched nave (not injected with MIA) animals was added as a comparator to the drug-dosed groups. The vehicle control response for each group of MIA-treated animals was defined as the 0% response (0% effect), whereas the nave control group was defined as the normal response and as 100% effect. The % effect=(Treatment CFmax−Vehicle CFmax)/Vehicle CFmax]×100). Higher % effect numbers indicate increased relief from the pain in the model, with 100% indicating a return to the level of response seen in normal (non-osteoarthritic) animals. All experiments evaluating drug effects in this model were conducted in a randomized blinded fashion.
Male Sprague Dawley rats (generally 250-300 g body weight at the time of testing) obtained from Charles River Laboratories (Wilmington, Mass.) were used for all experiments, unless indicated otherwise. […]

TrkA = molecular target: T3, TrkA (Homo sapiens, UniProt P04629); test: TrkA kinase inhibition, HTRF assay; format: biochemical; details: LCK peptide substrate 125 nM, TrkA 2-10 nM pre-incubated with ATP 200 μM
T3 construct: purchased Invitrogen PV3144
T3 sequence (P04629 33-796): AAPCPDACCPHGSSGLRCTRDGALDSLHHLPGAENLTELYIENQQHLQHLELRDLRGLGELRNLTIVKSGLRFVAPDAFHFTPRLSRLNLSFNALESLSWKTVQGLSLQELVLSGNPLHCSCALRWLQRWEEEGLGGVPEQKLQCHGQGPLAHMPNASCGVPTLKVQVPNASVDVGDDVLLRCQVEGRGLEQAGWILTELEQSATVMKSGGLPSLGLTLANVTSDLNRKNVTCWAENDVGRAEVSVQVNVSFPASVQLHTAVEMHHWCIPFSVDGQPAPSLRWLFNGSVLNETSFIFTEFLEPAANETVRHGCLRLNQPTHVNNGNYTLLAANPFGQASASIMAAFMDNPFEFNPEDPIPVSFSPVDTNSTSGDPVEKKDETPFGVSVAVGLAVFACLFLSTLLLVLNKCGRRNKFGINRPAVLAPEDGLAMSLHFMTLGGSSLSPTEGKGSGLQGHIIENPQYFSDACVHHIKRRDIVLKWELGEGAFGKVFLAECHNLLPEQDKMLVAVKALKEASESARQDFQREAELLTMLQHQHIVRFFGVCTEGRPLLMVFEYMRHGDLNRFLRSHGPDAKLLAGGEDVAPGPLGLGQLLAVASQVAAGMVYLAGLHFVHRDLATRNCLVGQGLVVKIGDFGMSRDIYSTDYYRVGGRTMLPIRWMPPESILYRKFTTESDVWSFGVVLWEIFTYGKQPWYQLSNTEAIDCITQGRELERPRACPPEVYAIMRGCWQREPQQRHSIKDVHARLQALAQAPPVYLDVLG
How it was run: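 TrkA (2-10 nM) preactivated 20 min with 200 μM ATP in HEPES pH 7.4 with Mg2+/Mn2+, then compound for 10 min, then 125 nM biotinylated LCK-peptide for 1 h at ambient temperature. HTRF 665/620 ratio read; IC50 fitted from initial-rate percent inhibition.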

T1 sequence (Q16620 32-822): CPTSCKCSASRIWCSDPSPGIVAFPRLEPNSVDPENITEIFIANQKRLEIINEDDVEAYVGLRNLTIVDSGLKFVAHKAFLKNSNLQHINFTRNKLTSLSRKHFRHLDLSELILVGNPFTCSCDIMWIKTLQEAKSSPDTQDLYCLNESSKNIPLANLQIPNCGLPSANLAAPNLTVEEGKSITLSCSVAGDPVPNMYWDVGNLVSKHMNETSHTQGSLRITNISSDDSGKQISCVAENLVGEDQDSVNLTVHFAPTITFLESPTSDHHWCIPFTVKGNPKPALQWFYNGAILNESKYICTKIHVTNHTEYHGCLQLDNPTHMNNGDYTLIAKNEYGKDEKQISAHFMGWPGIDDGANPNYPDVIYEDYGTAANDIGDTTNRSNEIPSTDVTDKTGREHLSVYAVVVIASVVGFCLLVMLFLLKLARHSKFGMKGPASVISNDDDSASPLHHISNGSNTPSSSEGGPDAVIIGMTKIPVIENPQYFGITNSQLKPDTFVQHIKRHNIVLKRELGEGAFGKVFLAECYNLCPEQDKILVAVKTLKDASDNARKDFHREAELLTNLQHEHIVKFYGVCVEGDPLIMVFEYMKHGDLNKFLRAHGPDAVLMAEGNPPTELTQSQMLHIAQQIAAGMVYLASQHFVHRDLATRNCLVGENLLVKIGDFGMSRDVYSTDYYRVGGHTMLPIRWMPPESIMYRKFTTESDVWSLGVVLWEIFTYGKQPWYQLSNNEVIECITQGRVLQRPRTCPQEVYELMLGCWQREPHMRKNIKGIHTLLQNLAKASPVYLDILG

Row | Compound | IC50 (TrkB) [nM] | IC50 (TrkC) [nM] | % Effect ([1]; dose 30 mg/kg p.o.) [%***] | IC50 (TrkA) [nM] | % Effect ([1]; dose 100 mg/kg p.o.) [%***]
1 | CNC(=O)c1ccc(-c2cc(OC3CCOCC3)c3c(C)n[nH]c3c2)cc1N1CCN(C(=O)OC(C)C)CC1 [Example 125, isopropyl 4-{2-(methylcarbamoyl)-5-[3-methyl-4-(tetrahydro-2H-pyran-4-yloxy)-1H-indazol-6-yl]phenyl}piperazine-1-carboxylate] | 3.2 | 5.11 | 85 | 7.98 | 
2 | CNC(=O)c1ccc(-c2cc(OC3CCOCC3)c3c(N)n[nH]c3c2)cc1N1CCN(CC(F)(F)F)CC1 [Example 108, 4-[3-amino-4-(tetrahydro-2H-pyran-4-yloxy)-1H-indazol-6-yl]-N-methyl-2-[4-(2,2,2-trifluoroethyl)piperazin-1-yl]benzamide] | 41.3 | 52.2 | 73 | 30.5 | 
3 | CNC(=O)c1ccc(-c2cc(OC3CCOCC3)c3c(N)n[nH]c3c2)cc1N1CCN(c2ncc(F)cn2)CC1 [Example 113, 4-[3-amino-4-(tetrahydro-2H-pyran-4-yloxy)-1H-indazol-6-yl]-2-[4-(5-fluoropyrimidin-2-yl)piperazin-1-yl]-N-methylbenzamide] |  |  | 89 | 4.74 | 
4 | CNC(=O)c1ccc(-c2cc(OC3CCOCC3)c3c(N)n[nH]c3c2)cc1N1CCN(C2CCCCC2)CC1 [Example 29, 4-[3-amino-4-(tetrahydro-2H-pyran-4-yloxy)-1H-indazol-6-yl]-2-(4-cyclohexylpiperazin-1-yl)-N-methylbenzamide] | 46 | 55.9 |  | 97.9 | 77

— patent US20160376240A1, “6 Phenyl or 6 Pyridin 3 YL Indazole Derivatives and Methods of Use” (ABBVIE INC., priority 2014, published 2016)
